Legend:
Assay type in all cases: cell-based
[1] = tested on: Aeromonas hydrophila; assay: MIC against Gram-negative bacteria: Aeromonas hydrophila; details: 5×10^5 CFU/mL; for MIC against A. hydrophila: Aeromonas hydrophila; for MIC (μg/mL) A. hydrophila / MIC: A. hydrophila
Procedure, shortened: (§1)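 Bacteria grown in LB at 37° C with shaking to McFarland 0.5, pelleted and resuspended in fresh LB, then seeded at 5×10^5 CFU/mL per well. Purified recombinant human EGF domain proteins were two-fold serially diluted in triplicate and plates shaken at 37° C, 175 rpm. MIC is the lowest protein concentration with no bacterial growth.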

[2] = tested on: Serratia marcescens; assay: MIC against Gram-negative bacteria: Serratia marcescens; details: 5×10^5 CFU/mL; for MIC against S. marcescens: Serratia marcescens; for MIC (μg/mL) S. marcescens / MIC: S. marcescens
Procedure, shortened: as §1

[3] = tested on: E. coli DH5α; assay: Antibacterial activity: MIC and growth curve against E. coli DH5α in 96-well plate; details: minimal inhibitory concentration against E. coli DH5α; 96-well plate, 5×10^5 CFU/mL, 37° C., judged after 8 h
Procedure, shortened: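 Log-phase DH5α (OD600 about 0.5, 37° C, 185 rpm in LB) was pelleted, resuspended in fresh LB and seeded at 5×10^5 CFU/mL with recombinant protein at 50, 25 and 12.5 μg/mL (two-fold series), in triplicate. Plates were shaken at 175 rpm, 37° C, and OD600 was read every 30 min. MIC was the lowest concentration with no growth.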

[4] = tested on: Proteus vulgaris; assay: MIC against Gram-negative bacteria: Proteus vulgaris; details: 5×10^5 CFU/mL; for MIC against P. vulgaris: Proteus vulgaris; for MIC (μg/mL) P. vulgaris / MIC: P. vulgaris
Procedure, shortened: as §1

[5] = tested on: Pseudomonas aeruginosa; assay: MIC against Gram-negative bacteria: Pseudomonas aeruginosa; details: 5×10^5 CFU/mL; for MIC against P. aeruginosa: Pseudomonas aeruginosa; for MIC (μg/mL) P. aeruginosa / MIC: P. aeruginosa
Procedure, shortened: as §1

[6] = tested on: Enterobacter cloacae; assay: MIC against Gram-negative bacteria: Enterobacter cloacae; details: 5×10^5 CFU/mL; for MIC against E. cloacae: Enterobacter cloacae; for MIC (μg/mL) E. cloacae / MIC: E. cloacae
Procedure, shortened: as §1

[7] = tested on: Proteus mirabilis; assay: MIC against Gram-negative bacteria: Proteus mirabilis; details: 5×10^5 CFU/mL; for MIC against P. mirabilis: Proteus mirabilis; for MIC (μg/mL) P. mirabilis / MIC: P. mirabilis
Procedure, shortened: as §1

[8] = tested on: Citrobacter diversus; assay: MIC against Gram-negative bacteria: Citrobacter diversus; details: 5×10^5 CFU/mL; for MIC against C. diversus: Citrobacter diversus; for MIC (μg/mL) C. diversus / MIC: C. diversus
Procedure, shortened: as §1

[9] = tested on: Moraxella catarrhalis; assay: MIC against Gram-negative bacteria: Moraxella catarrhalis; details: 5×10^5 CFU/mL; for MIC against M. catarrhalis: Moraxella catarrhalis; for MIC (μg/mL) M. catarrhalis / MIC: M. catarrhalis
Procedure, shortened: as §1

[10] = tested on: Klebsiella pneumonia; assay: MIC against Gram-negative bacteria: Klebsiella pneumonia; details: 5×10^5 CFU/mL; for MIC against K. pneumonia: Klebsiella pneumonia; for MIC (μg/mL) K. pneumonia / MIC: K. pneumonia
Procedure, shortened: as §1

[11] = tested on: E. coli BL21; assay: MIC against Gram-negative bacteria: E. coli BL21; details: E. coli BL21, 5×10^5 CFU/mL
Procedure, shortened: as §1

PRT1313 (VADLCQDGHGGCSEHANCSQVGTMVTCTCLPDYEGDGWSCR; listed as Homo sapiens)
25 µg/mL: MIC against A. hydrophila ([1]; 96-well plate, 37° C., 10 h) | MIC against K. pneumonia ([10]; 96-well plate, 37° C., 10 h) | MIC against E. coli BL21 ([11]; 96-well plate, 37° C., 10 h)
12.5 µg/mL: MIC [3] | MIC against P. vulgaris ([4]; 96-well plate, 37° C., 10 h) | MIC against E. cloacae ([6]; 96-well plate, 37° C., 10 h) | MIC against M. catarrhalis ([9]; 96-well plate, 37° C., 10 h)
50 µg/mL: MIC against S. marcescens ([2]; 96-well plate, 37° C., 10 h) | MIC against P. aeruginosa ([5]; 96-well plate, 37° C., 10 h) | MIC against P. mirabilis ([7]; 96-well plate, 37° C., 10 h) | MIC against C. diversus ([8]; 96-well plate, 37° C., 10 h)

PRT820 (YGDNCRHSCLCQNGGTCDPVSGHCACPEGWAGLACE; listed as Homo sapiens)
25 µg/mL: MIC (μg/mL) S. marcescens ([2]; 10 h cultivation at 37° C.)
50 µg/mL: MIC (μg/mL) A. hydrophila ([1]; 10 h cultivation at 37° C.) | MIC (μg/mL) M. catarrhalis ([9]; 10 h cultivation at 37° C.) | MIC (μg/mL) K. pneumonia ([10]; 10 h cultivation at 37° C.) | MIC (μg/mL) E. coli BL21 ([11]; 10 h cultivation at 37° C.)
12.5 µg/mL: MIC [3] | MIC (μg/mL) P. vulgaris ([4]; 10 h cultivation at 37° C.) | MIC (μg/mL) P. aeruginosa ([5]; 10 h cultivation at 37° C.) | MIC (μg/mL) E. cloacae ([6]; 10 h cultivation at 37° C.) | MIC (μg/mL) P. mirabilis ([7]; 10 h cultivation at 37° C.) | MIC (μg/mL) C. diversus ([8]; 10 h cultivation at 37° C.)

PRT412 (LNDRCRGGGPCKQQCRDTGDEVVCSCFVGYQLLSDGVSCE; listed as Homo sapiens)
12.5 µg/mL: MIC ([2]; 10 h cultivation at 37° C.) | MIC [3] | MIC ([5]; 10 h cultivation at 37° C.) | MIC ([7]; 10 h cultivation at 37° C.) | MIC ([8]; 10 h cultivation at 37° C.)
25 µg/mL: MIC ([1]; 10 h cultivation at 37° C.) | MIC ([4]; 10 h cultivation at 37° C.) | MIC ([9]; 10 h cultivation at 37° C.) | MIC ([10]; 10 h cultivation at 37° C.)
50 µg/mL: MIC ([6]; 10 h cultivation at 37° C.) | MIC ([11]; 10 h cultivation at 37° C.)

PRT763 (ALDRCALNTHGCEHICVNDRSGSYHCECYEGYTLNEDRKTCS; listed as Homo sapiens)
12.5 µg/mL: MIC (μg/mL) P. aeruginosa ([5]; 10 h cultivation at 37° C.) | MIC (μg/mL) E. cloacae ([6]; 10 h cultivation at 37° C.) | MIC (μg/mL) P. mirabilis ([7]; 10 h cultivation at 37° C.) | MIC (μg/mL) C. diversus ([8]; 10 h cultivation at 37° C.) | MIC (μg/mL) M. catarrhalis ([9]; 10 h cultivation at 37° C.)
50 µg/mL: MIC (μg/mL) P. vulgaris ([4]; 10 h cultivation at 37° C.) | MIC (μg/mL) E. coli BL21 ([11]; 10 h cultivation at 37° C.)
25 µg/mL: MIC (μg/mL) A. hydrophila ([1]; 10 h cultivation at 37° C.) | MIC (μg/mL) S. marcescens ([2]; 10 h cultivation at 37° C.) | MIC [3] | MIC (μg/mL) K. pneumonia ([10]; 10 h cultivation at 37° C.)

PRT188 (HVSDCARNPCAHGGTCHDLENGLMCTCPAGFSGRRCE; listed as Homo sapiens)
25 µg/mL: MIC (μg/mL) P. vulgaris ([4]; 10 h cultivation at 37° C.) | MIC (μg/mL) M. catarrhalis ([9]; 10 h cultivation at 37° C.)
50 µg/mL: MIC (μg/mL) P. aeruginosa ([5]; 10 h cultivation at 37° C.) | MIC (μg/mL) E. cloacae ([6]; 10 h cultivation at 37° C.)
12.5 µg/mL: MIC (μg/mL) A. hydrophila ([1]; 10 h cultivation at 37° C.) | MIC (μg/mL) S. marcescens ([2]; 10 h cultivation at 37° C.) | MIC [3] | MIC (μg/mL) P. mirabilis ([7]; 10 h cultivation at 37° C.) | MIC (μg/mL) C. diversus ([8]; 10 h cultivation at 37° C.) | MIC (μg/mL) K. pneumonia ([10]; 10 h cultivation at 37° C.) | MIC (μg/mL) E. coli BL21 ([11]; 10 h cultivation at 37° C.)

PRT1404 (RAACPVLCSGNGQYSKGRCLCFSGWKGTECD; listed as Homo sapiens)
25 µg/mL: MIC against A. hydrophila ([1]; 10 h cultivation at 37° C.) | MIC against P. vulgaris ([4]; 10 h cultivation at 37° C.) | MIC against M. catarrhalis ([9]; 10 h cultivation at 37° C.) | MIC against K. pneumonia ([10]; 10 h cultivation at 37° C.) | MIC against E. coli BL21 ([11]; 10 h cultivation at 37° C.)
50 µg/mL: MIC against S. marcescens ([2]; 10 h cultivation at 37° C.) | MIC against P. aeruginosa ([5]; 10 h cultivation at 37° C.) | MIC against C. diversus ([8]; 10 h cultivation at 37° C.)
12.5 µg/mL: MIC [3] | MIC against E. cloacae ([6]; 10 h cultivation at 37° C.) | MIC against P. mirabilis ([7]; 10 h cultivation at 37° C.)

PRT428 (DVNECWASPGRLCQHTCENTLGSYRCSCASGFLLAADGKRCE; listed as Homo sapiens)
50 µg/mL: MIC [3] | MIC ([4]; 10 h cultivation at 37° C.) | MIC ([6]; 10 h cultivation at 37° C.) | MIC ([9]; 10 h cultivation at 37° C.)
25 µg/mL: MIC ([1]; 10 h cultivation at 37° C.) | MIC ([10]; 10 h cultivation at 37° C.) | MIC ([11]; 10 h cultivation at 37° C.)
12.5 µg/mL: MIC ([2]; 10 h cultivation at 37° C.) | MIC ([5]; 10 h cultivation at 37° C.) | MIC ([7]; 10 h cultivation at 37° C.) | MIC ([8]; 10 h cultivation at 37° C.)

Source: US9833497B2, “Human originated EGF domain proteins and use of the same” (CHENGDU SOURCEBIO LIMITED-LIABILITY COMPANY, priority 2013, dated 2017)
